Test results: patent US8273761B2, “Tricyclic compound and medical use thereof” (Takeda Pharmaceutical Company Limited, priority 2006, dated 2012)

Key:
[1] = target: T1, human melatonin 2 receptors (human MT2 receptors) (Homo sapiens, UniProt P49286); experiment: Melatonin receptor binding inhibitory test (MT2); settings: 2-[125I] Iodomelatonin 1 nM solution, membrane fraction of CHO-hMT2 cells, 25° C. for 2.5 hr
T1 construct: expressed in transfected cells
T1 sequence (P49286 1-362): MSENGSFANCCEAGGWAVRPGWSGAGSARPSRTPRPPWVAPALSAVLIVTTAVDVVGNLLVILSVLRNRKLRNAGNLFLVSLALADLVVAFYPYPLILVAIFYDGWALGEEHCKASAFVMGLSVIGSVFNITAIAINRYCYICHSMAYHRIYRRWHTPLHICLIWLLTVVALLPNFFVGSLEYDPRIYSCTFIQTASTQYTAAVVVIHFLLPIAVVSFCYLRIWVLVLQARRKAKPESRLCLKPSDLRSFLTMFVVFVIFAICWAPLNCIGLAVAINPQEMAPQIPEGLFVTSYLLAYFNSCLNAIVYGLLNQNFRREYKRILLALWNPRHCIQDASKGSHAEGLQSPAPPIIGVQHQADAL
Experimental: Melatonin Receptor Binding Inhibitory Test (2) Preparation of CHO-hMT2 Cells Expressing Human Melatonin 2 Receptors A cDNA fragment (SEQ ID NO: 2) encoding full-length of human melatonin 2 receptors (human MT2 receptors) was incorporated into expression vector pCMV-Script (Stratagene, #212220) to give the plasmid that was pCMV-human MT2 receptors expression vector for animal cell expression. CHO-K1 cells (ATCC, #CCL-61) were plated at the concentration of 1.5×10^5 cells/cm^2 in a 6 well plate (ASAHI TECHNO GLASS), and cultured under the conditions of 37° C., 5% CO2 for 24 hr. For gene transfection, solution obtained by blending pCMV-human MT2 receptors expression vector (1.9 μg), Lipofectamine Transfection Reagent (Invitrogen, #18324-012) (11.3 μL) and Minimum Essential Medium Eagle (MEM) medium (Sigma, M8042) (93.8 μL), and reacting at room temperature for 20 min was added to the cells per one well. The transfected cells were cultured in MEM medium containing 10% FBS (Life Technology) and 300 μg/mL Geneticin (GIBCO, #10131), and the cell line that stably expressed the plasmid gene was selected. By a receptor binding assay using 2-[^125I] […] (3) Preparation of Cellular Membrane Fraction of CHO Cell (CHO-hMelR7 and CHO-hMT2) Stably Expressing Human MT1 and MT2 Receptors CHO-hMelR7 and CHO-hMT2 cells were plated using Cellfactory (Nunc, #170009) under the conditions of 1×10^8 cells/2000 mL/flask. The cells were grown to confluent, and recovered by the following method. As the medium for CHO-hMelR7 and CHO-hMT2, MEM α containing 10% FBS and penicillin/streptomycin was used. 300 ng/mL of geneticin was added to the medium for CHO-hMT2. The medium was discarded, cells were washed twice with 200 mL of EDTA/PBS(-), 200 mL of EDTA/PBS(-) was further added, and the cells were stood still at room temperature for 20 min until they were released. The cells were recovered in four 50 mL tubes (Becton Dickinson, #352070), and centrifuged at 1,500 rpm for 10 min at 4° C. using a low speed cooling centrifuge (Hitachi, CF7D2). The supernatant was discarded, the pellets in the four tubes were suspended in 10 mL of PBS(-), and combined in one tube (Becton Dickinson, #352070). The mixture was further centrifuged at 1,500 rpm for 10 min at 4° C., and the obtained pellets were suspended in 20 mL of ice-cooled homogenizing buffer [10 mM NaHCO3, 5 mM EDTA, Protease inhibitor Complete (Roche), pH 7.4]. The cell suspension was homogenized 3 times using a polytron homogenizer at 20,000 rpm for 30 sec. The obtained homogenate was centrifuged (2,000 rpm, 10 min, 4° C.) using a low speed cooling centrifuge. The supernatant was recovered in an ultracentrifugation tube and ultracentrifuged (40,000 rpm, 60 min, 4° C.) using an ultracentrifuge (Beckman, […]). To the obtained pellets was added a suspending buffer [50 mM Tris-HCl, 1 mM EDTA, Protease inhibitor Complete (Roche), pH 7.4], and the pellets were suspended by pipetting. The protein concentration of this suspension was measured, diluted to 2 mg/mL to give cellular membrane fractions of CHO-hMelR7 and CHO-hMT2 cells. […] Protein was quantified using BCA protein assay kit (Pierce) with BSA as the standard. (4) Preparation of Membrane Fraction Suspension Immediately before use, the membrane fractions of CHO-hMelR7 and CHO-hMT2 cells of the above-mentioned (3) were diluted 20-fold with assay buffer (50 mM Tris-HCl, pH 7.7). (5) Preparation of 2-[^125I] […] (6) Binding Reaction The assay buffer (80 μL) of the above-mentioned (4) was added to each well of a 96-well plate (type 3363, Corning). […] (7) Measurement Using a cell harvester (PerkinElmer), the binding reaction mixture in each well of the 96-well plate was transferred to a treated (immersed in 50 mM Tris, pH 7.7 in advance) filter plate (UniFilter GF/C, PerkinElmer) and filtered.

[2] = target: T2, human melatonin 1 receptors (human MT1 receptors) (Homo sapiens, UniProt P48039); experiment: Melatonin receptor binding inhibitory test (MT1); settings: 2-[125I] Iodomelatonin 400 pM solution, membrane fraction of CHO-hMelR7 cells, 25° C. for 2.5 hr
T2 construct: expressed in transfected cells
T2 sequence (P48039 whole entry): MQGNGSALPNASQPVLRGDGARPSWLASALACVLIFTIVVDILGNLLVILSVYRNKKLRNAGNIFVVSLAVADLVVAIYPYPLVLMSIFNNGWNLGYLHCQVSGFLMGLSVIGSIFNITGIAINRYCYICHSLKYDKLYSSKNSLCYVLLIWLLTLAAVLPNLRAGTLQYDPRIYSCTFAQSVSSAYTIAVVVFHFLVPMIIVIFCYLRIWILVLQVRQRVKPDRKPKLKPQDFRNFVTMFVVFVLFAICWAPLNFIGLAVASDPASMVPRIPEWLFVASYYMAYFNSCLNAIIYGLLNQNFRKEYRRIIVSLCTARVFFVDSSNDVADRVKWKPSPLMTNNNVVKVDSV
Experimental: Biochim Biophys Acta. Vol. 1219(2), pp. 251-259, 1994) to give plasmid pAKKO-hMelR7 for animal cell expression. CHO/dhfr-cells (ATCC, #CRL-9096) were plated at a concentration of 0.3×10^6 cells/dish in a 6 cm culture dish (Becton Dickinson), and cultured under the conditions of 37° C., 5% CO2 for 48 hr. The cells were transfected with pAKKO-hMelR7 plasmid DNA (5 μg) using […] Transfection Kit (Amersham, #27-9268-01). The transfected cells were cultured in Dulbecco's modified Eagle medium (DMEM) (Sigma, #D6046) containing 10% dialyzed FBS ([…]), 1× Non-Essential Amino Acid (Invitrogen, #11140-050) and 50 μg/mL Gentamycin (Invitrogen, #15750-060), and the cell line that stably expressed the plasmid gene was selected. By a receptor binding assay using 2-[^125I] […] (3) Preparation of Cellular Membrane Fraction of CHO Cell (CHO-hMelR7 and CHO-hMT2) Stably Expressing Human MT1 and MT2 Receptors CHO-hMelR7 and CHO-hMT2 cells were plated using Cellfactory (Nunc, #170009) under the conditions of 1×10^8 cells/2000 mL/flask. The cells were grown to confluent, and recovered by the following method. As the medium for CHO-hMelR7 and CHO-hMT2, MEM α containing 10% FBS and penicillin/streptomycin was used. 300 ng/mL of geneticin was added to the medium for CHO-hMT2. The medium was discarded, cells were washed twice with 200 mL of EDTA/PBS(-), 200 mL of EDTA/PBS(-) was further added, and the cells were stood still at room temperature for 20 min until they were released. The cells were recovered in four 50 mL tubes (Becton Dickinson, #352070), and centrifuged at 1,500 rpm for 10 min at 4° C. using a low speed cooling centrifuge (Hitachi, CF7D2). The supernatant was discarded, the pellets in the four tubes were suspended in 10 mL of PBS(-), and combined in one tube (Becton Dickinson, #352070). The mixture was further centrifuged at 1,500 rpm for 10 min at 4° C., and the obtained pellets were suspended in 20 mL of ice-cooled homogenizing buffer [10 mM NaHCO3, 5 mM EDTA, Protease inhibitor Complete (Roche), pH 7.4]. The cell suspension was homogenized 3 times using a polytron homogenizer at 20,000 rpm for 30 sec. The obtained homogenate was centrifuged (2,000 rpm, 10 min, 4° C.) using a low speed cooling centrifuge. The supernatant was recovered in an ultracentrifugation tube and ultracentrifuged (40,000 rpm, 60 min, 4° C.) using an ultracentrifuge (Beckman, […]). To the obtained pellets was added a suspending buffer [50 mM Tris-HCl, 1 mM EDTA, Protease inhibitor Complete (Roche), pH 7.4], and the pellets were suspended by pipetting. The protein concentration of this suspension was measured, diluted to 2 mg/mL to give cellular membrane fractions of CHO-hMelR7 and CHO-hMT2 cells. […] Protein was quantified using BCA protein assay kit (Pierce) with BSA as the standard. (4) Preparation of Membrane Fraction Suspension Immediately before use, the membrane fractions of CHO-hMelR7 and CHO-hMT2 cells of the above-mentioned (3) were diluted 20-fold with assay buffer (50 mM Tris-HCl, pH 7.7). (5) Preparation of 2-[^125I] […] (6) Binding Reaction The assay buffer (80 μL) of the above-mentioned (4) was added to each well of a 96-well plate (type 3363, Corning). […] (7) Measurement Using a cell harvester (PerkinElmer), the binding reaction mixture in each well of the 96-well plate was transferred to a treated (immersed in 50 mM Tris, pH 7.7 in advance) filter plate (UniFilter GF/C, PerkinElmer) and filtered. After filtration, the plate was washed 4 times with the assay buffer, and dried in a dryer (42° C.) for 2 hr or more. 25 μL of a liquid scintillator (MicroScint O, PerkinElmer) was added to each well of the filter plate after drying, and the luminescence of scintillator was measured by TopCount (PerkinElmer) for 1 min. Specific binding is a value obtained by subtracting nonspecific binding from the total binding.

Row | melting point [°C] | IC50 [1] [µM] | IC50 [2] [µM] | SMILES
1 | 104 to 106 | ≤ 0.1 | – | CCC(=O)NCCc1cnn2ccc3occc3c12 [Example 1, N-(2-furo[3,2-c]pyrazolo[1,5-a]pyridin-1-ylethyl)propanamide]
2 | – | – | ≤ 0.1 | CC(=O)NCCC1CCc2cnc3c(c21)CCO3 (centres unmarked) [Example 19, N-[2-(1,6,7,8-tetrahydro-2H-cyclopenta[d]furo[2,3-b]pyridin-8-yl)ethyl]acetamide]
3 | – | – | ≤ 0.1 | O=C(NCCC1CCc2cnc3c(c21)CCO3)C1CC1 (centres unmarked) [Example 26, N-[2-(1,6,7,8-tetrahydro-2H-cyclopenta[d]furo[2,3-b]pyridin-8-yl)ethyl]cyclopropanecarboxamide]
4 | 163 to 164 | – | – | CCC(=O)NC/C=C1\CCc2ncc3c(c21)CCO3 [Example 32, N-[(2E)-2-(1,2,6,7-tetrahydro-8H-cyclopenta[b]furo[3,2-d]pyridin-8-ylidene)ethyl]propanamide]
